{"source": "patent US20240287609A1", "about": "“COMPOSITIONS AND METHODS FOR LARGE-SCALE IN VIVO GENETIC SCREENING” (UNIVERSITY OF UTAH RESEARCH FOUNDATION, priority 2021, published 2024)", "test_system": "zebrafish larvae", "test": "Light- and Optovin-induced motor response assay", "format": "in vivo, zebrafish (Danio rerio)", "settings": "10 μM optovin, wild-type zebrafish, pulsed violet light", "experimental": "Light- and Optovin-induced motor response assay. Zebrafish larvae at 3 dpf were arrayed in 96-well plates and treated with 10 μM optovin (Fisher Scientific, cat #490110) in a total volume of 200 μL E3 media. Treated larvae were incubated at […] for 1 h in dark. […] Movement of the larvae was tracked and quantitated following 5×1s pulse of violet light after 10 s interval in the dark.\nIdentifying the protein targets of small molecules remains one of the major challenges in chemical biology and pharmacology. Herein it was hypothesized that MIC-Drop could be used to identify the targets of small molecules that result in complex behavioral phenotypes in the zebrafish. As proof-of-principle, optovin was utilized, a small molecule agonist of the trpa1b channel that allows photo-activatable behavioral modifications in zebrafish. Droplets targeting the trpa1b channel were spiked into a collection of droplets containing scrambled gRNAs in a 1:20 ratio (FIG. 7B). Droplet-injected embryos were arrayed into 96-well plates, treated with optovin and exposed to violet light flashes while simultaneously recording embryo movement. […] Thus, the MIC-Drop platform was able to be used to identify the target of optovin from among a library of non-target candidates.", "note": "Entries after “also recorded” stand apart in the source; their conditions may differ.", "data": [{"smiles": "Cc1cc(/C=C2/SC(=S)NC2=O)c(C)n1-c1cccnc1", "note": "[optovin]", "values": [{"measurement": "motor response of zebrafish after treatment", "value": "light-dependent motor response; also recorded: light-dependent motion response"}]}]}
